Source: patent publication US20130018061A1, “Method for Improving Exercise and Recovery From Exercise” (priority 2011, published 2013)

What was measured:
[1] = Study 2; effects typically experienced with high amounts of caffeine
Experimental: In this first study, twenty-one subjects (20 male, 1 female), all healthy and between the ages of 20 and 35 years were given the pre-workout supplement in capsule form to be taken 30 to 45 minutes before exercise on an empty stomach in place of any regularly consumed pre-workout product prior to the next exercise session. Subjects were instructed to maintain normal diet and activity. Subjects were surveyed for ratings of perceived effects on energy levels and mental focus. Subjects were also advised to supply general comments regarding the supplement in terms of negative side effects, comparison to other products, overall satisfaction and effectiveness.

[2] = absorbed in the small intestine; cited from earlier work
[3] = 250 mg caffeine, 200 mg L-theanine, or both; cited from earlier work
[4] = 50 mg or 200 mg after cycling exercise, fourteen healthy male subjects; cited from earlier work

Structure (SMILES)	jitters and energy crash [1]	time of peak plasma levels [2] [min]	effect on alertness, anxiety and blood pressure [3]	post-exercise mental regeneration [4]
CCNC(=O)CC[C@H](N)C(=O)O [L-theanine, γ-N-ethylglutamine]	prevented jitters and the energy crash	≤ 30	only acted to counter the increase in blood pressure	accelerated post-exercise mental regeneration
Cn1c(=O)c2c(ncn2C)n(C)c1=O [caffeine, 1,3,7-trimethylxanthine]	–	–	increased alertness, anxiety, and blood pressure	–
